Assay results as given in patent publication US10231956B2, “3-(1H-pyrrolo[3,2-C]pyridin-2-YL)-1 H-pyrazolo[4,3-B]pyridines and therapeutic uses thereof” (Samumed, LLC, priority 2015, dated 2019).

How the values were obtained:
Assay type in all cases: cell-based
[1] = test system: Wnt activity (Sp5-Luc reporter, SW480 colon carcinoma cells); test: Sp5-Luc reporter gene screening assay for Wnt activity in SW480 cells; details: Homo sapiens, luminescence, overnight incubation
Description: The screening assay for Wnt activity is described as follows. Reporter cell lines can be generated by stably transducing cancer cell lines (e.g., colon cancer) or primary cells (e.g., IEC-6 intestinal cells) with a lentiviral construct that includes a Wnt-responsive promoter driving expression of the firefly luciferase gene.
SW480 colon carcinoma cells were transduced with a lentiviral vector expressing luciferase with a human Sp5 promoter consisting of a sequence of eight TCF/LEF binding sites. SW480 cells stably expressing the Sp5-Luc reporter gene and a hygromycin resistance gene were selected by treatment with 150 μg/mL of hygromycin for 7 days. These stably transduced SW480 cells were expanded in cell culture and used for all further screening activities. Each compound was dissolved in DMSO as a 10 mM stock and used to prepare compound source plates. Serial dilution (1:3, 10-point dose-response curves starting from 10 μM) and compound transfer was performed using the ECHO 550 (Labcyte, Sunnyvale, Calif.) into 384-well white solid bottom assay plates (Greiner Bio-One) with appropriate DMSO backfill for a final DMSO concentration of 0.1%. For Sp5-Luc reporter gene assays, the cells were plated at 4,000 cells/well in 384-well plates with medium containing 1% fetal bovine serum and incubated overnight at 37° C. and 5% CO2. Following incubation, 20 μl of BrightGlo luminescence reagent (Promega) was added to each well of the 384-well assay plates. The plates were placed on an orbital shaker for 2 min and then luminescence was quantified using the Envision (Perkin Elmer) plate reader. Readings were normalized to DMSO only treated cells, and normalized activities were utilized for EC50 calculations using the dose-response log (inhibitor) vs. response-variable slope (four parameters) nonlinear regression feature available in GraphPad Prism 5.0 (or Dotmatics). For EC50 of >10 μM, the percent inhibition at 10 μM is provided.

SW480 colon cancer cells = test: Cell viability assay (CellTiter-Blue) in SW480 colon cancer cells; details: Homo sapiens, 96 h, four days, CellTiter-Blue
Experimental: Representative compounds were screened using the following assay procedure to assess the effect on cell viability as described below.
Each compound was dissolved in DMSO as a 10 mM stock and used to prepare compound source plates. Serial dilution (1:3, 8-point dose-response curves from 10 μM to 0.0045 μM) and compound transfer was performed using the ECHO 550 (Labcyte, Sunnyvale, Calif.) into 96-well clear bottom, black-walled plates (Corning-Costar).
Approximately 2×10^3 SW480 colon cancer cells were seeded into each well and allowed to incubate in the presence or absence of compound for four days at 37° C./5% CO2. Eight replicates of DMSO-treated cells served as controls and cells treated with compound were performed in duplicate.
After incubation, 20 μL of CellTiter-Blue (Promega) was added to each well allowed to incubate for approximately 3 hours. This reagent was a buffered solution which contains resazurin, metabolically active cells were able to reduce rezarurin (blue) into resorufin (pink) which was highly fluorescent. This measured fluorescence was used as a readout for cell viability.
After incubation, the plates were read at Ex 560 nm Em 590 nm (Cytation 3, BioTek). Dose-response curves were generated and EC50 concentration values were calculated using non-linear regression curve fit in the GraphPad Prism (San Diego, Calif.) or Dotmatics' Studies Software (Bishops Stortford, UK). For EC50 of >10 μM, the percent inhibition at 10 μM is provided.

[2] = test system: primary human fibroblasts derived from IPF patients (LL29 cells); test: Inhibition of fibrotic process: αSMA staining in TGF-β1 treated LL29 fibroblasts; details: Fibroblast, 96 h, TGF-β1 20 ng/mL, 4 days, % cells positive for αSMA
Description: Representative compounds were screened using primary human fibroblasts (derived from IPF patients) treated with TGF-β1 to determine their ability to inhibit the fibrotic process.
Human Fibroblast Cell Culture: Primary human fibroblasts derived from IPF patients (LL29 cells) [^1Xiaoqiu Liu, et. al., “Fibrotic Lung Fibroblasts Show Blunted Inhibition by cAMP Due to Deficient cAMP Response Element-Binding Protein Phosphorylation”, Journal of Pharmacology and Experimental Therapeutics (2005), 315(2), 678-687; ^2Watts, K. L., et. al., “RhoA signaling modulates cyclin D1 expression in human lung fibroblasts; implications for idiopathic pulmonary fibrosis”, Respiratory Research (2006), 7(1), 88] were obtained from American Type Culture Collection (ATCC) and expanded in F12 medium supplemented with 15% Fetal Bovine Serum and Penicillin/Streptomycin.
Compound Screening: Each compound was dissolved in DMSO as a 10 mM stock and used to prepare compound source plates. Serial dilution (1:2, 11-point dose-response curves from […]) and compound transfer was performed using the ECHO 550 (Labcyte, Sunnyvale, Calif.) into 384-well clear bottom assay plates (Greiner Bio-One) with appropriate DMSO backfill for a final DMSO concentration of 0.1%. LL29 cells are plated at 1,500 cells/well in 80 μL/well F12 medium supplemented with 1% Fetal Bovine Serum. One hour after addition of the cells, TGF-β1 (Peprotech; 20 ng/mL) was added to the plates to induce fibrosis (ref. 1 and 2 above). Wells treated with TGF-β1 and containing DMSO were used as controls. Cells were incubated at 37° C. and 5% CO2 for 4 days. Following incubation for 4 days, SYTOX green nucleic acid stain (Life Technologies [Thermo Fisher Scientific]) was added to the wells at a final concentration of 1 μM and incubated at room temperature for 30 min. Cells were then fixed using 4% formaldehyde (Electron Microscopy Sciences), washed 3 times with PBS followed by blocking and permeabilization using 3% Bovine Serum Albumin (BSA; Sigma) and 0.3% Triton X-100 (Sigma) in PBS. Cells were then stained with antibody specific to α-smooth muscle actin (αSMA; Abcam) (ref. 1 and 2 above) in 3% Bovine Serum Albumin (BSA; Sigma) and 0.3% Triton X-100 (Sigma) in PBS, and incubated overnight at 4° C. Cells were then washed 3 times with PBS, followed by incubation with Alexa Flor-647 conjugated secondary antibody (Life Technologies [Thermo Fisher Scientific]) and DAPI at room temperature for 1 hour. Cells were then washed 3 times with PBS and plates were sealed for imaging. αSMA staining was imaged by excitation at 630 nm and emission at 665 nm and quantified using the Compartmental Analysis program on the CellInsight CX5 (Thermo Scientific). Dead or apoptotic cells were excluded from analysis based on positive SYTOX green staining. % of total cells positive for αSMA were counted in each well and normalized to the average of 11 wells treated with TGF-β1 on the same plate using Dotmatics' Studies Software. The normalized averages (fold change over untreated) of 3 replicate wells for each compound concentration were used to create dose-responses curves and EC50 values were calculated using non-linear regression curve fit in the Dotmatics' Studies Software. For EC50 of >10 μM, the percent inhibition at 10 μM is provided.

IL-6 = IL-6 inhibition in LPS-stimulated THP-1 cells (HTRF); details: Homo sapiens, LPS 500 ng/mL, 22 hours, IL6 HTRF
Experimental: Human Monocyte Cell Culture: Human monocyte cell line (THP-1 cells; Catalog # TIB-202, ATCC, Manassas, Va.) were cultured in Roswell Park Memorial Institute (RPMI) 1640 Medium (Catalog #21870-100, Buffalo, N.Y.) with 1% L-glutamine, 1% HEPES, 1% Sodium Pyruvate, 2% Sodium Bicarbonate supplemented with 100 units/mL penicillin, 50 μg/mL streptomycin, 2-mercaptoethanol (0.05 mM) [basal medium] and 10% fetal bovine serum (Catalog #16140089, Life Technologies, Carlsbad, Calif.) at 37° C. and 5% CO2.
Compound Screening: THP-1 cells were cultured in basal media with 1% FBS for 24 hours before the start of the assay. Each compound was dissolved in DMSO as a 10 mM stock and used to prepare compound source plates. Serial dilution (1:3, 10-point dose-response curves starting from 1 μM) and compound transfer was performed using the ECHO 550 (Labcyte, Sunnyvale, Calif.) into 384-well white low volume assay plates (Greiner Bio-One) with appropriate DMSO backfill for a final DMSO concentration of 0.1%. THP-1 cells were plated at 5000 cells/well in the 384-well plates and incubated at 37° C. for 2 h. 500 ng/mL of LPS was added after 2 hours and cells were incubated for another 22 hours at 37° C. Plates were spun in a centrifuge for 1 minute at 10,000 rpm and a mixture of anti-IL6 XL665, and anti-IL6 Cryptate diluted in reconstitution buffer (Cisbio Inc.) was added to each well. Following incubation for 3 hrs at room temperature, Homogeneous Time-Resolved Fluorescence (HTRF) was measured using the Envision (Perkin Elmer) at 665 nm and […]. The ratio of fluorescence at 665 nm to 620 nm was used as a readout for IL6 quantification. All samples were processed in duplicate. Readings were normalized to DMSO treated cells and normalized activities were utilized for EC50 calculations using the dose-response log (inhibitor) vs. response-variable slope (four parameters) nonlinear regression feature available in GraphPad Prism 5.0 (or Dotmatics). For EC50 of >10 μM, the percent inhibition at 10 μM is provided.

CC(C)(C)C(=O)Nc1cncc(-c2ccc3[nH]nc(-c4cc5c(-c6cccc(F)c6)nccc5[nH]4)c3n2)c1 [Compound 8, N-(5-(3-(4-(3-Fluorophenyl)-1H-pyrrolo[3,2-c]pyridin-2-yl)-1H-pyrazolo [4,3-b]pyridin-5-yl)pyridin-3-yl)pivalamide]
EC50 [1]: 4860 nM
EC50 (SW480 colon cancer cells): 2620 nM
EC50 [2]: 1080 nM
EC50 (IL-6): 118 nM

Fc1ccc(-c2nccc3[nH]c(-c4n[nH]c5ccc(-c6ccccn6)nc45)cc23)cc1 [Compound 56, 3-(4-(4-Fluorophenyl)-1H-pyrrolo[3,2-c]pyridin-2-yl)-5-(pyridin-2-yl)-1H-pyrazolo[4,3-b]pyridine]
EC50 [1]: 3470 nM
EC50 (SW480 colon cancer cells): 2590 nM
EC50 [2]: 1310 nM
EC50 (IL-6): 7700 nM

O=C(Nc1cncc(-c2ccc3[nH]nc(-c4cc5c(-c6cccnc6)nccc5[nH]4)c3n2)c1)C1CCCC1 [Compound 106, N-(5-(3-(4-(Pyridin-3-yl)-1H-pyrrolo[3,2-c]pyridin-2-yl)-1H-pyrazolo[4,3-b]pyridin-5-yl)pyridin-3-yl)cyclopentanecarboxamide]
EC50 [1]: 716 nM
EC50 (SW480 colon cancer cells): 737 nM
EC50 [2]: 1320 nM
EC50 (IL-6): 88 nM

c1cc(-c2nccc3[nH]c(-c4n[nH]c5ccc(-c6cncc(CNCC7CCCC7)c6)nc45)cc23)ccn1 [Compound 137, 1-Cyclopentyl-N-((5-(3-(4-(pyridin-4-yl)-1H-pyrrolo[3,2-c]pyridin-2-yl)-1H-pyrazolo[4,3-b]pyridin-5-yl)pyridin-3-yl)methyl)methanamine]
EC50 [1]: 4490 nM
EC50 (SW480 colon cancer cells): 1660 nM
EC50 [2]: 3240 nM
EC50 (IL-6): 9200 nM

CN1CCN(c2nccc3[nH]c(-c4n[nH]c5ccc(-c6cncc(NC(=O)CC(C)(C)C)c6)nc45)cc23)CC1 [Compound 240, 3,3-Dimethyl-N-(5-(3-(4-(4-methylpiperazin-1l-yl)-1H-pyrrolo[3,2-c]pyridin-2-yl)-1H-pyrazolo[4,3-b]pyridin-5-yl)pyridin-3-yl)butanamide]
EC50 [1]: 3510 nM
EC50 (SW480 colon cancer cells): 3570 nM
EC50 [2]: 1010 nM
EC50 (IL-6): 418 nM

c1cc2[nH]c(-c3n[nH]c4ccc(-c5cncc(CNCC6CCCC6)c5)nc34)cc2c(-c2ccoc2)n1 [Compound 333, 1-Cyclopentyl-N-((5-(3-(4-(furan-3-yl)-1H-pyrrolo[3,2-c]pyridin-2-yl)-1H-pyrazolo[4,3-b]pyridin-5-yl)pyridin-3-yl)methyl)methanamine]
EC50 [1]: 3710 nM
EC50 (SW480 colon cancer cells): 1190 nM
EC50 [2]: 714 nM
EC50 (IL-6): 9070 nM

Cc1ccncc1-c1ccc2[nH]nc(-c3cc4c(-c5cccs5)nccc4[nH]3)c2n1 [Compound 341, 5-(4-Methylpyridin-3-yl)-3-(4-(thiophen-2-yl)-1H-pyrrolo[3,2-c]pyridin-2-yl)-1H-pyrazolo[4,3-b]pyridine]
EC50 [1]: 1100 nM
EC50 (SW480 colon cancer cells): 577 nM
EC50 [2]: 621 nM
EC50 (IL-6): 5380 nM

c1csc(-c2nccc3[nH]c(-c4n[nH]c5ccc(-c6cncnc6)nc45)cc23)c1 [Compound 363, 5-(Pyrimidin-5-yl)-3-(4-(thiophen-2-yl)-1H-pyrrolo[3,2-c]pyridin-2-yl)-1H-pyrazolo[4,3-b]pyridine]
EC50 [1]: 2680 nM
EC50 (SW480 colon cancer cells): 1520 nM
EC50 [2]: 529 nM
EC50 (IL-6): 2750 nM

Fc1cccc(-c2nccc3[nH]c(-c4n[nH]c5ccc(C6CCNCC6)nc45)cc23)c1 [Compound 505, 3-(4-(3-Fluorophenyl)-1H-pyrrolo[3,2-c]pyridin-2-yl)-5-(piperidin-4-yl)-1H-pyrazolo[4,3-b]pyridine]
EC50 [1]: 8320 nM
EC50 (SW480 colon cancer cells): 4120 nM
EC50 [2]: 2710 nM
EC50 (IL-6): 1520 nM

c1cc2[nH]c(-c3n[nH]c4ccc(-c5cncc(OC6CCCCC6)c5)nc34)cc2c(-c2ccoc2)n1 [Compound 687, 5-(5-(Cyclohexyloxy)pyridin-3-yl)-3-(4-(furan-3-yl)-1H-pyrrolo[3,2-c]pyridin-2-yl)-1H-pyrazolo[4,3-b]pyridine]
EC50 [1]: 1010 nM
EC50 (SW480 colon cancer cells): 555 nM
EC50 [2]: 452 nM
EC50 (IL-6): 9020 nM
